# Data published in paper PMC3063489 (Molecular and biochemical parasitology, 2011).
# Like-named read-outs stand apart in the source and are kept apart here.
# Experiments:
# GFP-SmDAT = GFP-SmDAT (Schistosoma mansoni, UniProt E9LD23); format: cell-based; conditions: COS-7 cells; for uptake of tritiated substrate by SmDAT: 100 nM of each substrate, normalized to dopamine uptake (Fig. 2A)
# hDAT = hDAT (Homo sapiens, UniProt Q01959); conditions: COS-7 cells
# [1] = test system: Schistosoma mansoni adult worms; conditions: adult worms treated with dopamine; cited from earlier work
# Schistosoma = conditions: cited from earlier work
# Chain of hDAT (Q01959 whole entry): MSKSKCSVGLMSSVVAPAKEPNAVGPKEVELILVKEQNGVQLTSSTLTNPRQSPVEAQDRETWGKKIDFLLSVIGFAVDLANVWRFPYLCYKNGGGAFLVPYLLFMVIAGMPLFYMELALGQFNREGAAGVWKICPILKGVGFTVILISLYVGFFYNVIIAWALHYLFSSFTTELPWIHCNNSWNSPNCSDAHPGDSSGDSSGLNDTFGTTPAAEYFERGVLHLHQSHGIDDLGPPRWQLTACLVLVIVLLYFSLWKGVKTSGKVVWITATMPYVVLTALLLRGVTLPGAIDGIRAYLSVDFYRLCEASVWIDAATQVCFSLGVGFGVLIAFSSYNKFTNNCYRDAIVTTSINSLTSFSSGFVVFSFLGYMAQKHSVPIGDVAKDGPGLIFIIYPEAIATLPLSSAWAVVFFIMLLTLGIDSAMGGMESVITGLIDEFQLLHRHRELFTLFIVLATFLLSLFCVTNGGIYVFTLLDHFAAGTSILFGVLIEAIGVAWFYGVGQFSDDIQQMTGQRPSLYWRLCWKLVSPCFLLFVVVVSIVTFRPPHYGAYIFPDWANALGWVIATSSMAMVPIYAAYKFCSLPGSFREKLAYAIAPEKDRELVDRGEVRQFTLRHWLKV
structure (smiles),measurement,setting,value
NC[C@H](O)c1ccc(O)c(O)c1 [Norepinephrine],uptake of tritiated substrate by SmDAT,GFP-SmDAT,low but significant levels
NCCc1ccc(O)c(O)c1 [dopamine],"Vmax of dopamine uptake, GFP-SmDAT",GFP-SmDAT,0.16 ± 0.04 pmol/well/min
same,"Vmax of dopamine uptake, GFP-SmDAT",GFP-SmDAT; unit as printed in legend of Fig. 2,0.16 ± 0.04 pmol/min
same,"Vmax of dopamine uptake, hDAT",hDAT,0.9 ± 0.2 pmol/well/min
same,effect on adult worms,[1],relaxation of muscles and a lengthening of the worms
O=C(C1CCCCC1)N1CC(=O)N2CCc3ccccc3C2C1 (stereo not shown) [praziquantel],activity on immature worms and eggs,Schistosoma,not active
NCCc1c[nH]c2ccc(O)cc12 [serotonin],uptake of tritiated substrate by SmDAT,GFP-SmDAT,could not detect any detectable levels
